Where a name gives a salt, the structure may show the parent alone.
Target: 5HT3a receptor expressed in HEK-293T cells (Homo sapiens (Human), UniProt P46098)
Experiment: Inhibition of Ca flux activity of 5HT3 in vitro assay
Format: cell-based
Conditions: calcium flux, 5HT 216 nM, approximate values
Summary of the method: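 HEK-293T cells transiently transfected with human 5HT3a, loaded 1 hour at 37° C with calcium dye in HBSS/20 mM HEPES, preincubated with compound (10^−7 to 10^−10, half-log) 10 minutes at room temperature.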

Sequence of 5HT3a receptor expressed in HEK-293T cells (P46098 24-478): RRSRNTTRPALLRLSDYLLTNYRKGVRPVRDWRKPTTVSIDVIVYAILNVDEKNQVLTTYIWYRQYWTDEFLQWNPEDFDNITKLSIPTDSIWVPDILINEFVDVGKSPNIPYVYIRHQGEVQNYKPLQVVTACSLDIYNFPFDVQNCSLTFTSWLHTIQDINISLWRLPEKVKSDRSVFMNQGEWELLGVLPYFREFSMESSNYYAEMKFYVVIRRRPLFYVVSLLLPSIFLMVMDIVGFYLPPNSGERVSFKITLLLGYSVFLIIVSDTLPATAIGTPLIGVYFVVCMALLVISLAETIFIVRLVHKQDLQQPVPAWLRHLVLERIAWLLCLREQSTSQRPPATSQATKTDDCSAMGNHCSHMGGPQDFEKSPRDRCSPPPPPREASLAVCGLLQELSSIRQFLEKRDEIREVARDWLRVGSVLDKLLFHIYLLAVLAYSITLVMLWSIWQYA

Compound	IC50
CN1[C@@H]2COC[C@H]1CC(NC(=O)c1cn(-c3ncccn3)c3ccccc13)C2 (stereo partly drawn) [Example 122, N-((1R,5S,7S)-9-methyl-d3-3-oxa-9-azabicyclo[3.3.1]nonan-7-yl)-1-(pyrimidin-2-yl)-1H-indole-3-carboxamide, 2,2,2-trifluoroacetate]	1.01 nM
CN1[C@@H]2COC[C@H]1C[C@@H](OC(=O)c1cn(-c3ccc(F)nn3)c3ccc(C#N)cc13)C2 [Example 161, 1R,5S,7s)-9-methyl-3-oxa-9-azabicyclo[3.3.1]nonan-7-yl 5-cyano-1-(6-fluoropyridazin-3-yl)-1H-indole-3-carboxylate]	> 1000 nM
O=C(NC1C[C@H]2COC[C@@H](C1)N2)c1cn(CC(F)F)c2ncccc12 (stereo partly drawn) [Example 82, N-((1R,5S,7S)-3-oxa-9-azabicyclo[3.3.1]nonan-7-yl)-1-(2,2-difluoroethyl)-1H-pyrrolo[2,3-b]pyridine-3-carboxamide, 2,2,2-trifluoroacetate]	> 1000 nM
CN1[C@@H]2COC[C@H]1CC(OC(=O)c1cn(CC(F)(F)F)c3ncccc13)C2 (stereo partly drawn) [Example 49, (1R,5S,7S)-9-methyl-3-oxa-9-azabicyclo[3.3.1]nonan-7-yl 1-(2,2,2-trifluoroethyl)-1H-pyrrolo[2,3-b]pyridine-3-carboxylate, 2,2,2-trifluoroacetate]	1.82 nM
CN1[C@@H]2CC[C@H]1CC(NC(=O)c1cn(S(C)(=O)=O)c3ccccc13)C2 (stereo partly drawn) [Example 74, N-((1R,3R,5S)-8-methyl-8-azabicyclo[3.2.1]octan-3-yl)-1-(methylsulfonyl)-1H-indole-3-carboxamide, 2,2,2-trifluoroacetate]	0.42 nM
CN1[C@@H]2COC[C@H]1CC(NC(=O)c1cn(-c3cnccn3)c3ccccc13)C2 (stereo partly drawn) [Example 130, N-((1R,5S,7S)-9-methyl-d3-3-oxa-9-azabicyclo[3.3.1]nonan-7-yl)-1-(pyrazin-2-yl)-1H-indole-3-carboxamide]	0.55 nM
O=C(OC1CC2COCC(C1)N2)c1cn(-c2cnsc2)c2ccccc12 [Example 143, (1R,5S,7s)-3-oxa-9-azabicyclo[3.3.1]nonan-7-yl 1-(isothiazol-4-yl)-1H-indole-3-carboxylate, 2,2,2-trifluoroacetic acid salt]	0.415 nM
CN1[C@@H]2COC[C@H]1CC(NC(=O)c1cn(-c3cccnn3)c3ccccc13)C2 (stereo partly drawn) [Example 117, N-((1R,5S,7S)-9-methyl-3-oxa-9-azabicyclo[3.3.1]nonan-7-yl)-1-(pyridazin-3-yl)-1H-indole-3-carboxamide, 2,2,2-trifluoroacetate]	0.39 nM
CN1[C@@H]2CC[C@H]1CC(OC(=O)c1cn(CC(F)F)c3ncccc13)C2 (stereo partly drawn) [Example 72, (1R,3R,5S)-8-methyl-8-azabicyclo[3.2.1]octan-3-yl 1-(2,2-difluoroethyl)-1H-pyrrolo[2,3-b]pyridine-3-carboxylate, 2,2,2-trifluoroacetate]	3.59 nM
CN1[C@@H]2COC[C@H]1CC(NC(=O)c1cn(CC(F)(F)F)c3ncc(F)cc13)C2 (stereo partly drawn) [Example 52, 5-fluoro-N-((1R,5S,7S)-9-methyl-3-oxa-9-azabicyclo[3.3.1]-nonan-7-yl)-1-(2,2,2-trifluoroethyl)-1H-pyrrolo[2,3-b]pyridine-3-carboxamide, 2,2,2-trifluoroacetate]	1.05 nM
(1R,5S,7s)-3-oxa-9-azabicyclo[3.3.1]nonan-7-yl 1-(pyrazin-2-yl)-1H-indole-3-carboxylate, 2,2,2-trifluoroacetic acid salt [Example 27]	0.89 nM
CN1[C@@H]2COC[C@H]1C[C@@H](NC(=O)c1cn(-c3cncn3C)c3ccccc13)C2 [Example 154, 1-(1-methyl-1H-imidazol-5-yl)-N-((1R,5S,7s)-9-methyl-3-oxa-9-azabicyclo[3.3.1]nonan-7-yl)-1H-indole-3-carboxamide]	0.328 nM
CN1[C@@H]2COC[C@H]1CC(OC(=O)c1cn(S(C)(=O)=O)c3ccccc13)C2 (stereo partly drawn) [Example 47, (1R,5S,7S)-9-methyl-3-oxa-9-azabicyclo[3.3.1]nonan-7-yl 1-(methylsulfonyl)-1H-indole-3-carboxylate, 2,2,2-trifluoroacetate]	0.33 nM
CN1[C@@H]2CC[C@H]1CC(OC(=O)c1cn(CC(F)(F)F)c3ncccc13)C2 (stereo partly drawn) [Example 41, (1R,3R,5S)-8-methyl-8-azabicyclo[3.2.1]octan-3-yl 1-(2,2,2-trifluoroethyl)-1H-pyrrolo[2,3-b]pyridine-3-carboxylate, 2,2,2-trifluoroacetate]	5.56 nM
O=C(OC1CC2COCC(C1)N2)c1cn(CC(F)F)c2ncccc12 [Example 101, (1R,5S,7S)-3-oxa-9-azabicyclo[3.3.1]nonan-7-yl 1-(2,2-difluoroethyl)-1H-pyrrolo[2,3-b]pyridine-3-carboxylate, 2,2,2-trifluoroacetate]	> 1000 nM
CN1[C@@H]2COC[C@H]1CC(NC(=O)c1cn(CC(F)(F)F)c3ccccc13)C2 (stereo partly drawn)	0.68 nM
CN1C2COCC1CC(NC(=O)c1nn(-c3cncs3)c3ccccc13)C2 [Example 165, N-((1R,5S,7s)-9-methyl-3-oxa-9-azabicyclo[3.3.1]nonan-7-yl)-1-(thiazol-5-yl)-1H-indazole-3-carboxamide, 2,2,2-trifluoroacetic acid salt]	1.53 nM
(1R,5S,7s)-3-oxa-9- azabicyclo[3.3.1]nonan- 7-yl 1-(isothiazol-3-yl)- 1H-indole-3- carboxamide, 2,2,2- trifluoroacetic acid salt [Example 145]	2.71 nM
CN1[C@@H]2CCC[C@H]1CC(OC(=O)c1cn(CC(F)(F)F)c3ccc(F)cc13)C2 (stereo partly drawn) [Example 89, (1R,3R,5S)-9-methyl-9-azabicyclo[3.3.1]nonan-3-yl 5-fluoro-1-(2,2,2-trifluoroethyl)-1H-indole-3-carboxylate, 2,2,2-trifluoroacetate]	0.66 nM
CN1C2CCC1CC(NC(=O)c1cn(CC(F)(F)F)c3ncccc13)C2 [Example 102, N-((1R,3R,5S)-8-methyl-8-azabicyclo[3.2.1]octan-3-yl)-1-(2,2,2-trifluoroethyl)-1H-pyrrolo[2,3-b]pyridine-3-carboxamide, 2,2,2-trifluoroacetate]	> 1000 nM
O=C(NC1C[C@H]2COC[C@@H](C1)N2)c1cn(CC(F)(F)F)c2ncccc12 (stereo partly drawn) [Example 38, N-((1R,5S,7S)-3-oxa-9-azabicyclo[3.3.1]nonan-7-yl)-1-(2,2,2-trifluoroethyl)-1H-pyrrolo[2,3-b]pyridine-3-carboxamide, 2,2,2-trifluoroacetate]	1.82 nM
O=C(O[C@H]1CC[N@@]2CCO[C@@H]1C2)c1cn(CC(F)F)c2ccc(F)cc12 [Example 91, (1S,5R,6S)-4-oxa-1-azabicyclo[3.3.1]nonan-6-yl 1-(2,2-difluoroethyl)-5-fluoro-1H-indole-3-carboxylate, 2,2,2-trifluoroacetate]	> 1000 nM
N-((1R,5S,7s)-9-methyl-3-oxa-9-azabicyclo[3.3.1]nonan-7-yl)-1-phenyl-1H-indole-3-carboxamide, 2,2,2-trifluoroacetic acid salt [Example 26]	0.54 nM
O=C(OC1C[C@H]2COC[C@@H](C1)N2CCF)c1cn(CC(F)(F)F)c2ccc(F)cc12 (stereo partly drawn) [Example 50, (1R,5S,7S)-9-(2-fluoroethyl)-3-oxa-9-azabicyclo[3.3.1]nonan-7-yl 5-fluoro-1-(2,2,2-trifluoroethyl)-1H-indole-3-carboxylate, 2,2,2-trifluoroacetate]	13 nM
